The target in the experiment is T1, human β3 adrenergic receptor (Homo sapiens, UniProt P13945).
T1 construct: stably transfected with the cloned β-adrenergic receptor (β1, β2 or β3); expressed in transfected cells; host or cells: Chinese hamster ovary (CHO) cells, stably transfected
The experiment can be described thus: Functional assay: cAMP production (LANCE TR-FRET) in CHO cells stably transfected with cloned β3 adrenergic receptor. It is filed as cell-based. In general terms: Changes in cAMP serve as a functional read-out for many G protein-coupled receptors.

Where [1] appears, read: Table 3, cAMP production, CHO cells expressing human β3 AR, read-out: Human β3 functional.
The mark [2] stands for this setting: cAMP production, CHO cells expressing human β3 AR, read-out: human Beta-3 agonist functional activity.
The mark [3] stands for this setting: Table 5, human β3 functional activity given as ranges, read-out: Human β3 functional.
Where [4] appears, read: Table 2, cAMP production, CHO cells expressing human β3 AR, read-out: Human β3 functional.

Counter-ions that a name gives are not always drawn. Like-named read-outs stand apart in the source and are kept apart here. Some results are limits rather than exact numbers.

T1 sequence (P13945 whole entry): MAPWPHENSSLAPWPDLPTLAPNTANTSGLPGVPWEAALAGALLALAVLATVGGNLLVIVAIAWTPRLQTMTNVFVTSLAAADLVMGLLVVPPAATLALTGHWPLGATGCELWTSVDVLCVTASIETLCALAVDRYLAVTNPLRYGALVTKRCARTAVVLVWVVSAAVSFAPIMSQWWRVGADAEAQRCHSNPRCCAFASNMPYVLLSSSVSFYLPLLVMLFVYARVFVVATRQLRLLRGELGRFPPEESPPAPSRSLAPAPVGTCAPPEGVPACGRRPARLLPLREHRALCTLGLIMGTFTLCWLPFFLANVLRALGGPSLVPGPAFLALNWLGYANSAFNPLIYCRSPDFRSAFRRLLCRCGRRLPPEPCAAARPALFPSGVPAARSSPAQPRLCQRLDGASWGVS

With `CC(C(=O)Nc1ccc(CC2CC[C@H]([C@H](O)c3cccnc3)N2)cc1)n1cc(C(N)=O)nn1` (single isomer, unassigned) [Example 200], the EC50 under setting [1] was 11 to 100 nM.

Turning to `CC(C(=O)Nc1ccc(CC2CC[C@H]([C@H](O)c3cccnc3)N2)cc1)n1cc(C(N)=O)nn1` (single isomer, unassigned) [Example 201], the EC50 under setting [1] lay within 1 to 10 nM.

Take `CC(C(=O)Nc1ccc(CC2CC[C@H]([C@H](O)c3cccnc3)N2)cc1)n1ccc(C(N)=O)n1` (single isomer, unassigned) [Example 202]: the EC50 under setting [1] fell in the range of 1 to 10 nM.

On to `CC(C(=O)Nc1ccc(CC2CC[C@H]([C@H](O)c3cccnc3)N2)cc1)n1ccc(C(N)=O)n1` (single isomer, unassigned) [Example 203], for which, under setting [1], the EC50 was 101 to 1000 nM.

As to `CCC(C(=O)Nc1ccc(CC2CC[C@H]([C@H](O)c3cccnc3)N2)cc1)c1cscn1` (single isomer, unassigned) [Example 204], under setting [1], the EC50 is 1 to 10 nM.

As to `CCC(C(=O)Nc1ccc(CC2CC[C@H]([C@H](O)c3cccnc3)N2)cc1)c1cscn1` (single isomer, unassigned) [Example 205], the EC50 under setting [1] lay in the range of 11 to 100 nM.

Take `CC(C(=O)Nc1ccc(CC2CC[C@H]([C@H](O)c3cccnc3)N2)cc1)n1nncc1C(=O)O` (single isomer, unassigned) [Example 206]: the EC50 under setting [1] was 1 to 10 nM.

On to `CC(C(=O)Nc1ccc(CC2CC[C@H]([C@H](O)c3cccnc3)N2)cc1)n1nncc1C(=O)O` (single isomer, unassigned) [Example 207], for which the EC50 under setting [1] lay in the range of 11 to 100 nM.

`COC(=O)c1cnnn1C(C)C(=O)Nc1ccc(CC2CC[C@H]([C@H](O)c3cccnc3)N2)cc1` (single isomer, unassigned) [Example 208]: the EC50 under setting [1] was in the range of 1 to 10 nM.

As for `COC(=O)c1cnnn1C(C)C(=O)Nc1ccc(CC2CC[C@H]([C@H](O)c3cccnc3)N2)cc1` (single isomer, unassigned) [Example 209], under setting [1], the EC50 was 101 to 1000 nM.

Turning to `Cc1cn(C(C)C(=O)Nc2ccc(CC3CC[C@H]([C@H](O)c4cccnc4)N3)cc2)nn1` (single isomer, unassigned) [Example 210], the EC50 under setting [1] lay within 11 to 100 nM.

In the case of `Cc1cn(C(C)C(=O)Nc2ccc(CC3CC[C@H]([C@H](O)c4cccnc4)N3)cc2)nn1` (single isomer, unassigned) [Example 211], the EC50 under setting [1] lay in the range of 11 to 100 nM.

For the compound `Cc1cnnn1C(C)C(=O)Nc1ccc(CC2CC[C@H]([C@H](O)c3cccnc3)N2)cc1` (single isomer, unassigned) [Example 212], the EC50 under setting [1] lay in the range of 101 to 1000 nM.

`Cc1cnnn1C(C)C(=O)Nc1ccc(CC2CC[C@H]([C@H](O)c3cccnc3)N2)cc1` (single isomer, unassigned) [Example 213]: the EC50 under setting [1] is 1 to 10 nM.

With `CC(C(=O)Nc1ccc(CC2CC[C@H]([C@H](O)c3cccnc3)N2)cc1)c1ccn(C)n1` (single isomer, unassigned) [Example 214], under setting [1], the EC50 is 11 to 100 nM.

As to `CC(C(=O)Nc1ccc(CC2CC[C@H]([C@H](O)c3cccnc3)N2)cc1)c1ccn(C)n1` (single isomer, unassigned) [Example 215], the EC50 under setting [1] fell in the range of 101 to 1000 nM.

Take `Cc1nnc2c(C(C)C(=O)Nc3ccc(CC4CC[C@H]([C@H](O)c5cccnc5)N4)cc3)cccn12` (single isomer, unassigned) [Example 216]: the EC50 under setting [1] was in the range of 11 to 100 nM.

`Cc1nnc2c(C(C)C(=O)Nc3ccc(CC4CC[C@H]([C@H](O)c5cccnc5)N4)cc3)cccn12` (single isomer, unassigned) [Example 217]: the EC50 under setting [1] was in the range of 11 to 100 nM.

Turning to `CC(C(=O)Nc1ccc(CC2CC[C@H]([C@H](O)c3cccnc3)N2)cc1)n1cnc2ccccc2c1=O` (single isomer, unassigned) [Example 218], the EC50 under setting [1] is 1 to 10 nM.

`CC(C(=O)Nc1ccc(CC2CC[C@H]([C@H](O)c3cccnc3)N2)cc1)n1cc(C(N)=O)cn1` (single isomer, unassigned) [Example 219]: the EC50 under setting [1] was 1 to 10 nM.

Regarding `COCCC(C(=O)Nc1ccc(CC2CC[C@H]([C@H](O)c3cccnc3)N2)cc1)n1cccn1` (single isomer, unassigned) [Example 220], the EC50 under setting [1] fell in the range of 1 to 10 nM.

Consider `COCCC(C(=O)Nc1ccc(CC2CC[C@H]([C@H](O)c3cccnc3)N2)cc1)n1cccn1` (single isomer, unassigned) [Example 221], for which the EC50 under setting [1] is 1 to 10 nM.

Regarding `O=C(Nc1ccc(CC2CCC(C(O)c3cccnc3)N2)cc1Br)C1CCc2sc(Br)nc21` (single isomer, unassigned) [Example 240, (4S or 4R)-2-bromo-N-[2-bromo-4-({(2S,5R)-5-[(R)-hydroxy(pyridin-3-yl)methyl]pyrrolidin-2-yl}methyl)phenyl]-5,6-dihydro-4H-cyclopenta[d][1,3]thiazole-4-carboxamide], the EC50 under setting [2] was less than 1000 nM.

For the compound `O=C(Nc1ccc(CC2CCC(C(O)c3cccnc3)N2)cc1Br)C1CCc2sc(Br)nc21` (single isomer, unassigned) [Example 241, (4S or 4R)-2-bromo-N-[2-bromo-4-({(2S,5R)-5-[(R)-hydroxy(pyridin-3-yl)methyl]pyrrolidin-2-yl}methyl)phenyl]-5,6-dihydro-4H-cyclopenta[d][1,3]thiazole-4-carboxamide], under setting [2], the EC50 was less than 100 nM.

For `O=C(Nc1ccc(CC2CC[C@H]([C@H](O)c3cccnc3)N2)cc1Br)C1CCc2sc(I)nc21` (single isomer, unassigned) [Example 243], the EC50 under setting [3] fell in the range of 101 to 1000 nM.

Regarding `O=C(Nc1ccc(CC2CC[C@H]([C@H](O)c3cccnc3)N2)cc1Br)C1CCc2sc(I)nc21` (single isomer, unassigned) [Example 244], the EC50 under setting [3] lay in the range of 11 to 100 nM.

As for `Nc1nc(CC(=O)Nc2ccc(C[C@@H]3CC[C@H]([C@H](O)c4cccnc4)N3)cc2)cs1` [Example 1, 2-2-Amino-1,3-thiazol-4-yl)-N-[4-({(2S,5R)-5-[(R)-hydroxy(pyridin-3-yl)methyl]pyrrolidin-2-yl}methyl)phenyl]acetamide, trfluoroacetic acid salt], under setting [2], the EC50 was less than 10 nM.

As for `O=C(CN1CCCC1=O)Nc1ccc(C[C@@H]2CC[C@H]([C@H](O)c3cccnc3)N2)cc1` [Example 2, N-[4-({(2S,5R)-5-[(R)-Hydroxy(pyridin-3-yl)methyl]pyrrolidin-2-yl}methyl)phenyl]-2-(2-oxopyrrolidin-1-yl)acetamide, trfluoroacetic acid salt], under setting [2], the EC50 was less than 100 nM.

With `Nc1nc(CC(=O)Nc2ccc(CC3CC[C@H]([C@H](O)c4cccnc4)N3)cc2)cs1` (some centres unmarked) [Example 3], the EC50 under setting [4] is 1 to 10 nM.

As to `O=C(Cc1n[nH]c(-c2ccccc2)n1)Nc1ccc(CC2CC[C@H]([C@H](O)c3cccnc3)N2)cc1` (some centres unmarked) [Example 4], the EC50 under setting [4] lay within 1 to 10 nM.

Take `O=C(Cn1ncc2ccccc21)Nc1ccc(CC2CC[C@H]([C@H](O)c3cccnc3)N2)cc1` (some centres unmarked) [Example 5]: under setting [4], the EC50 fell in the range of 11 to 100 nM.

In the case of `O=C(Cn1cc2ccccc2n1)Nc1ccc(CC2CC[C@H]([C@H](O)c3cccnc3)N2)cc1` (some centres unmarked) [Example 6], the EC50 under setting [4] was 11 to 100 nM.

As to `O=C(Cn1nc2ccccc2n1)Nc1ccc(CC2CC[C@H]([C@H](O)c3cccnc3)N2)cc1` (some centres unmarked) [Example 7], under setting [4], the EC50 was 11 to 100 nM.

Turning to `O=C(Cn1nc(Cc2ccccc2)c2ccccc2c1=O)Nc1ccc(CC2CC[C@H]([C@H](O)c3cccnc3)N2)cc1` (some centres unmarked) [Example 8], the EC50 under setting [4] fell in the range of 1 to 10 nM.

For the compound `Cc1nn(CC(=O)Nc2ccc(CC3CC[C@H]([C@H](O)c4cccnc4)N3)cc2)c(=O)c2ccccc12` (some centres unmarked) [Example 9], the EC50 under setting [4] was 1 to 10 nM.
